Test results as given in PubChem BioAssay AID330 (DTP/NCI, 2004).
Several values for one entry are separate records, joined by “and”; a condition that tells them apart may be missing. Equal entries are not always repeated. Inconclusive results and toxic doses are left out. The calls were made as follows: active = survival T/C of 150% or more; inactive = T/C below 125% in these data. Peptide text beside a SMILES is read from it. * marks the point of attachment. Boc = CC(C)(C)OC(=O)*

Tested on: P388 leukemia ip, CD2F1 mice, survival T/C
Experiment: NCI In Vivo Anticancer Drug Screen. Data for tumor model P388 Leukemia (intraperitoneal) in CD2F1 (CDF1) mice
Conditions: endpoint: median survival time, higher = longer survival
Method in brief: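 Mice carrying the transplanted tumor received test compound or vehicle. Survival was recorded in each group, and the value is the treated-group measurement divided by that of the vehicle-treated control group.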

[1] = dose: 60.0 mg/kg/injection, schedule: Q01DX005 (ip), vehicle: Klucel (hydroxypropylcellulose) (HPC)
[2] = dose: 120.0 mg/kg/injection, schedule: Q01DX005 (ip), vehicle: Klucel (hydroxypropylcellulose) (HPC)
[3] = dose: 240.0 mg/kg/injection, schedule: Q01DX005 (ip), vehicle: Klucel (hydroxypropylcellulose) (HPC)
[4] = dose: 15.0 mg/kg/injection, schedule: Q01DX005 (ip), vehicle: Klucel (hydroxypropylcellulose) (HPC)
[5] = dose: 30.0 mg/kg/injection, schedule: Q01DX005 (ip), vehicle: Klucel (hydroxypropylcellulose) (HPC)
[6] = dose: 100.0 mg/kg/injection, schedule: Q01DX001 (ip), vehicle: saline with Tween-80
[7] = dose: 200.0 mg/kg/injection, schedule: Q01DX001 (ip), vehicle: saline with Tween-80
[8] = dose: 400.0 mg/kg/injection, schedule: Q01DX001 (ip), vehicle: saline with Tween-80
[9] = dose: 50.0 mg/kg/injection, schedule: Q01DX009 (ip), vehicle: Klucel (hydroxypropylcellulose) (HPC)
[10] = dose: 100.0 mg/kg/injection, schedule: Q01DX009 (ip), vehicle: Klucel (hydroxypropylcellulose) (HPC)
[11] = dose: 200.0 mg/kg/injection, schedule: Q01DX009 (ip), vehicle: Klucel (hydroxypropylcellulose) (HPC)
[12] = dose: 50.0 mg/kg/injection, schedule: Q01DX005 (ip), vehicle: Klucel (hydroxypropylcellulose) (HPC)
[13] = dose: 100.0 mg/kg/injection, schedule: Q01DX005 (ip), vehicle: Klucel (hydroxypropylcellulose) (HPC)
[14] = dose: 200.0 mg/kg/injection, schedule: Q01DX005 (ip), vehicle: Klucel (hydroxypropylcellulose) (HPC)
[15] = dose: 50.0 mg/kg/injection, schedule: Q01DX005 (ip), vehicle: saline with Tween-80
[16] = dose: 100.0 mg/kg/injection, schedule: Q01DX005 (ip), vehicle: saline with Tween-80
[17] = dose: 50.0 mg/kg/injection, schedule: Q01DX005 (ip), vehicle: saline
[18] = dose: 100.0 mg/kg/injection, schedule: Q01DX005 (ip), vehicle: saline
[19] = dose: 200.0 mg/kg/injection, schedule: Q01DX005 (ip), vehicle: saline
[20] = dose: 200.0 mg/kg/injection, schedule: Q01DX005 (ip), vehicle: saline with Tween-80

Measured: T/C

Nc1ccccc1S(=O)(=O)Nc1c(N)[nH]c(=S)[nH]c1=O
inactive: [1] 105 % of control | [2] 99 % of control | [3] 113 % of control

O=C(O)c1ccc2c(c1Sc1ccc(Cl)cc1)C(=O)c1ccccc1C2=O
inactive: [1] 100 % of control | [2] 90 % of control | [3] 99 % of control

Nc1ncnc2c1c1c(=O)[nH]c(=O)[nH]c1n2C1OC(CO)C(O)C1O (stereo not given)
inactive: dose: 25.0 mg/kg/injection, schedule: Q01DX005 (ip), vehicle: distilled water + Tween-80 113 % of control | dose: 50.0 mg/kg/injection, schedule: Q01DX005 (ip), vehicle: distilled water + Tween-80 110 % of control | dose: 100.0 mg/kg/injection, schedule: Q01DX005 (ip), vehicle: distilled water + Tween-80 111 % of control | dose: 200.0 mg/kg/injection, schedule: Q01DX005 (ip), vehicle: distilled water + Tween-80 111 % of control | dose: 400.0 mg/kg/injection, schedule: Q01DX005 (ip), vehicle: distilled water + Tween-80 121 % of control

NC(=NCc1ccccc1)N/N=C\c1ccnc2ccccc12
inactive: [4] 101 % of control | [5] 97 % of control | [1] 95 % of control and 97 % of control

CNc1ccc(C=C2c3ccccc3-c3ccccc32)cc1
inactive: dose: 12.5 mg/kg/injection, schedule: Q01DX001 (ip), vehicle: saline with Tween-80 102 % of control | dose: 25.0 mg/kg/injection, schedule: Q01DX001 (ip), vehicle: saline with Tween-80 105 % of control | dose: 50.0 mg/kg/injection, schedule: Q01DX001 (ip), vehicle: saline with Tween-80 112 % of control | [6] 106 % of control

Cn1c2ccccc2c2nnc(N/N=C/c3ccc([N+](=O)[O-])o3)nc21
inactive: [6] 90 % of control | [7] 91 % of control | [8] 96 % of control

O=[N+]([O-])c1ccc(-c2cnc3nc4[nH]c5ccccc5c4nn23)cc1
inactive: [6] 101 % of control | [7] 92 % of control | [8] 87 % of control

CS(=O)(=O)/C=C/c1cccnc1
inactive: [9] 101 % of control | [10] 99 % of control | [11] 103 % of control

COc1cc2c(c(NC(C)CCCN=C(N)NC(N)=NC(C)C)c1)NCCC2 (stereo not given)
inactive: dose: 3.12 mg/kg/injection, schedule: Q01DX005 (ip), vehicle: saline with Tween-80 103 % of control | dose: 6.25 mg/kg/injection, schedule: Q01DX005 (ip), vehicle: saline with Tween-80 106 % of control | dose: 12.5 mg/kg/injection, schedule: Q01DX005 (ip), vehicle: saline with Tween-80 106 % of control

O=C(Nc1n[nH]c(NC(=O)c2ccc([N+](=O)[O-])cc2)n1)c1ccc([N+](=O)[O-])cc1
inactive: [12] 93 % of control | [13] 90 % of control | [14] 90 % of control

O=C(OCc1ccccc1)N1CC=CC1Cc1ccccc1 (stereo not given)
inactive: dose: 100.0 mg/kg/injection, schedule: Q01DX001 (ip), vehicle: distilled water + alcohol 97 % of control | dose: 200.0 mg/kg/injection, schedule: Q01DX001 (ip), vehicle: distilled water + alcohol 99 % of control | dose: 400.0 mg/kg/injection, schedule: Q01DX001 (ip), vehicle: distilled water + alcohol 100 % of control

N/C(=N\N=C/c1ccccc1)NN(Cc1ccccc1)N=O
inactive: dose: 25.0 mg/kg/injection, schedule: Q01DX005 (ip), vehicle: Klucel (hydroxypropylcellulose) (HPC) 100 % of control | [12] 92 % of control | [13] 94 % of control

Clc1ccc(N=Cc2cccs2)cc1Cl
inactive: [9] 110 % of control | [10] 107 % of control | [11] 110 % of control

OC1(C(O)(c2ccc(-c3ccccc3)cc2)c2ccc(-c3ccccc3)cc2)CCCCC1
inactive: [15] 90 % of control | [16] 87 % of control

CCOC(=O)C1=C(C(C)=O)C(c2ccc([N+](=O)[O-])cc2)C(C(C)=O)=C(C(=O)OCC)N1
inactive: dose: 7.5 mg/kg/injection, schedule: Q01DX005 (ip), vehicle: Klucel (hydroxypropylcellulose) (HPC) 101 % of control | [4] 104 % of control | [5] 102 % of control

N#CC1C(=O)NC(=O)C(C#N)C1c1ccncc1 (stereo not given)
inactive: [9] 103 % of control | [10] 104 % of control | [11] 103 % of control

CC(C)(C)OC(=O)NCC(=O)NCC(=O)O (Boc-Gly-Gly-OH)
inactive: [17] 102 % of control | [18] 102 % of control | [19] 101 % of control

O=C(O)CC1SC2(C(=O)N(Cc3ccccc3)c3ccccc32)N(c2ccccc2)C1=O (stereo not given)
inactive: [15] 89 % of control | [16] 95 % of control | [20] 89 % of control

O=[N+]([O-])c1ccc(N=Nc2ccc(N(CCO)CCO)cc2)cc1
inactive: dose: 60.0 mg/kg/injection, schedule: Q01DX005 (ip), vehicle: suspension in saline 95 % of control | dose: 120.0 mg/kg/injection, schedule: Q01DX005 (ip), vehicle: suspension in saline 97 % of control | dose: 240.0 mg/kg/injection, schedule: Q01DX005 (ip), vehicle: suspension in saline 98 % of control

CC(C)C1OCC(CCl)O1 (stereo not given)
inactive: [15] 104 % of control | [16] 100 % of control | [20] 104 % of control

COC1=CC(=O)C2CC=CC3CC(=O)OC1C32C (stereo not given)
inactive: dose: 100.0 mg/kg/injection, schedule: Q04DX002 (ip), vehicle: Klucel (hydroxypropylcellulose) (HPC) 100 % of control | dose: 200.0 mg/kg/injection, schedule: Q04DX002 (ip), vehicle: Klucel (hydroxypropylcellulose) (HPC) 94 % of control | dose: 400.0 mg/kg/injection, schedule: Q04DX002 (ip), vehicle: Klucel (hydroxypropylcellulose) (HPC) 100 % of control

O=C(NCCCBr)Nc1cccc2c1CCCC2
inactive: dose: 100.0 mg/kg/injection, schedule: Q01DX009 (ip), vehicle: saline with Tween-80 100 % of control | dose: 100.0 mg/kg/injection, schedule: Q04DX003 (ip), vehicle: saline with Tween-80 100 % of control | dose: 200.0 mg/kg/injection, schedule: Q01DX009 (ip), vehicle: saline with Tween-80 100 % of control | dose: 200.0 mg/kg/injection, schedule: Q04DX003 (ip), vehicle: saline with Tween-80 108 % of control | dose: 400.0 mg/kg/injection, schedule: Q01DX009 (ip), vehicle: saline with Tween-80 100 % of control | dose: 400.0 mg/kg/injection, schedule: Q04DX003 (ip), vehicle: saline with Tween-80 100 % of control

COC(=O)/C=C1\C2OC(C1C(=O)OC)C(O)C2O (stereo not given)
inactive: [15] 100 % of control | [16] 97 % of control | [20] 90 % of control

CC(=O)N1C2C3CCC(C)(OC3(C)C)C21 (stereo not given)
inactive: [17] 107 % of control | [18] 102 % of control | [19] 110 % of control

COc1ccc(OC)c(C2SCC(=O)N2c2nncs2)c1 (stereo not given)
inactive: dose: 60.0 mg/kg/injection, schedule: Q01DX005 (ip), vehicle: saline with Tween-80 104 % of control | dose: 120.0 mg/kg/injection, schedule: Q01DX005 (ip), vehicle: saline with Tween-80 97 % of control | dose: 240.0 mg/kg/injection, schedule: Q01DX005 (ip), vehicle: saline with Tween-80 97 % of control

N#Cc1cc2cc3c4c(c2oc1=O)CCCN4CCC3
inactive: [12] 95 % of control | [13] 94 % of control | [14] 95 % of control

COC(=O)C(CCl)NC(C)=O (stereo not given)
inactive: [17] 97 % of control | [18] 100 % of control | [19] 101 % of control

COc1c2c(c3c(c1CCC(=O)O)OC(C)(C)C=C3)OC(C)(C)C=C2
inactive: [12] 102 % of control | [13] 100 % of control | [14] 102 % of control

COc1ccc(S(=O)(=O)O)cc1-n1nc(C(=O)Nc2ccccc2)n[n+]1-c1cc(S(=O)(=O)[O-])ccc1OC
inactive: dose: 100.0 mg/kg/injection, schedule: Q01DX001 (ip), vehicle: suspension in saline 100 % of control | dose: 200.0 mg/kg/injection, schedule: Q01DX001 (ip), vehicle: suspension in saline 100 % of control | dose: 400.0 mg/kg/injection, schedule: Q01DX001 (ip), vehicle: suspension in saline 103 % of control

CC(=O)NCNC(C)=O
inactive: dose: 50.0 mg/kg/injection, schedule: Q01DX009 (ip), vehicle: saline 100 % of control | dose: 100.0 mg/kg/injection, schedule: Q01DX009 (ip), vehicle: saline 97 % of control | dose: 200.0 mg/kg/injection, schedule: Q01DX009 (ip), vehicle: saline 108 % of control
